For this data set, the system named is CCRIS mutagenicity, Ames/micronucleus/aberration tests. As to the kind of experiment: CCRIS mutagenicity studies.
The mark [1] stands for this setting: Test System: AMES SALMONELLA TYPHIMURIUM, Strain/Indicator: TA98, Metabolic Activation: NONE, Method: STANDARD PLATE.
The mark [2] stands for this setting: Test System: AMES SALMONELLA TYPHIMURIUM, Strain/Indicator: TA98, Metabolic Activation: RAT, LIVER, S-9, AROCLOR 1254, Method: STANDARD PLATE.
The mark [3] stands for this setting: Test System: AMES SALMONELLA TYPHIMURIUM, Strain/Indicator: TA100, Metabolic Activation: NONE, Method: STANDARD PLATE.
Where [4] appears, read: Test System: AMES SALMONELLA TYPHIMURIUM, Strain/Indicator: TA100, Metabolic Activation: RAT, LIVER, S-9, AROCLOR 1254, Method: STANDARD PLATE.
Setting [5] is: Test System: AMES SALMONELLA TYPHIMURIUM, Strain/Indicator: TA1535, Metabolic Activation: NONE, Method: STANDARD PLATE.
[6] abbreviates: Test System: AMES SALMONELLA TYPHIMURIUM, Strain/Indicator: TA1535, Metabolic Activation: RAT, LIVER, S-9, AROCLOR 1254, Method: STANDARD PLATE.
The mark [7] stands for this setting: Test System: AMES SALMONELLA TYPHIMURIUM, Strain/Indicator: TA1537, Metabolic Activation: RAT, LIVER, S-9, AROCLOR 1254, Method: STANDARD PLATE.
The mark [8] stands for this setting: Test System: AMES SALMONELLA TYPHIMURIUM, Strain/Indicator: TA98, Metabolic Activation: NONE, Method: PREINCUBATION
[9] abbreviates: Test System: AMES SALMONELLA TYPHIMURIUM, Strain/Indicator: TA100, Metabolic Activation: NONE, Method: PREINCUBATION
Setting [10] is: Test System: MOUSE LYMPHOMA, Strain/Indicator: L5178Y (TK+/TK-), Metabolic Activation: NONE, Method: SUSPENSION/PLATE.
[11] abbreviates: Test System: MOUSE LYMPHOMA, Strain/Indicator: L5178Y (TK+/TK-), Metabolic Activation: RAT, LIVER, S-9, AROCLOR 1254, Method: SUSPENSION/PLATE.

The source made the active and inactive calls. How the calls were made is not given here.

As for `CCCCN(COC(C)=O)N=O`, the mutagenic call (Test System: UDS RAT UROTHELIAL CELLS, Strain/Indicator: THY INCORP, Metabolic Activation: NONE) was “active; positive”.
Consider `CC12CCC(=O)NC1=CCC1C2CCC2(C)C(OC(=O)CCCc3ccc(N(CCCl)CCCl)cc3)CCC12` (stereo not drawn), for which the mutagenic call reads like this: under setting [1], “inactive; negative”; under setting [2], “inactive; negative”; under setting [3], “active; positive”; under setting [4], “active; positive”; (Test System: AMES SALMONELLA TYPHIMURIUM, Strain/Indicator: TA102, Metabolic Activation: NONE, Method: STANDARD PLATE) “inactive; negative”; (Test System: AMES SALMONELLA TYPHIMURIUM, Strain/Indicator: TA102, Metabolic Activation: RAT, LIVER, S-9, AROCLOR 1254, Method: STANDARD PLATE) “inactive; negative”. Besides, the mutagenic call runs as follows: under setting [5], “active; positive”; under setting [6], “active; positive”; (Test System: AMES SALMONELLA TYPHIMURIUM, Strain/Indicator: TA1537, Metabolic Activation: NONE, Method: STANDARD PLATE) “inactive; negative”; under setting [7], “inactive; negative”.
Regarding `O=[N+]([O-])c1c2ccccc2cc2c3c(ccc12)[C@@H](O)[C@H](O)C=C3`, the mutagenic call reads like this: under setting [1], “active; positive”; under setting [3], “inactive; negative”.
As to `CC[C@H](C)OS(C)(=O)=O`, the mutagenic call was “active; positive” under setting [3]; “active; positive” under setting [5]; “active; positive” (Test System: CHINESE HAMSTER V-79, Strain/Indicator: V-79/6-THIOGUANINE, Metabolic Activation: NONE).
In the case of `Nc1ccc(N=Nc2ccc3c(c2)C(=O)/C(=N/Nc2ccc(Nc4ccc(N/N=C5/C(=O)c6cc(N=Nc7ccc(N)cc7N)ccc6C=C5S(=O)(=O)O)cc4S(=O)(=O)O)cc2)C(S(=O)(=O)O)=C3)c(N)c1`, the mutagenic call runs as follows: (Test System: AMES SALMONELLA TYPHIMURIUM, Strain/Indicator: TA98, Metabolic Activation: HAMSTER LIVER S-9, Method: PREINCUBATION) “active; positive”; (Test System: AMES SALMONELLA TYPHIMURIUM, Strain/Indicator: TA98, Metabolic Activation: HAMSTER, LIVER, S-9, AROCLOR 1254, Method: STANDARD PLATE) “active; positive”; (Test System: AMES SALMONELLA TYPHIMURIUM, Strain/Indicator: TA98, Metabolic Activation: HAMSTER, LIVER, S-9, Method: PREINCUBATION (PRIVAL METHOD)) “active; positive”; under setting [8], “active; positive”; under setting [1], “active; positive”; (Test System: AMES SALMONELLA TYPHIMURIUM, Strain/Indicator: TA98, Metabolic Activation: RAT LIVER S-9, AROCLOR 1254, Method: PREINCUBATION) “active; positive”. The mutagenic call is “active; positive” under setting [2]; “active; positive” (Test System: AMES SALMONELLA TYPHIMURIUM, Strain/Indicator: TA100, Metabolic Activation: HAMSTER LIVER S-9, Method: PREINCUBATION); “inactive; negative” (Test System: AMES SALMONELLA TYPHIMURIUM, Strain/Indicator: TA100, Metabolic Activation: HAMSTER, LIVER, S-9, AROCLOR 1254, Method: STANDARD PLATE); “inactive; negative” under setting [9]; “inactive; negative” under setting [3]; “inactive; negative” (Test System: AMES SALMONELLA TYPHIMURIUM, Strain/Indicator: TA100, Metabolic Activation: RAT LIVER S-9, AROCLOR 1254, Method: PREINCUBATION). The mutagenic call runs as follows: under setting [4], “inactive; negative”; (Test System: AMES SALMONELLA TYPHIMURIUM, Strain/Indicator: TA1535, Metabolic Activation: HAMSTER, LIVER, S-9, AROCLOR 1254, Method: STANDARD PLATE) “active; positive”; under setting [5], “inactive; negative”; under setting [6], “inactive; negative”; (Test System: AMES SALMONELLA TYPHIMURIUM, Strain/Indicator: TA1537, Metabolic Activation: HAMSTER, LIVER, S-9, AROCLOR 1254, Method: STANDARD PLATE) “active; positive”; under setting [7], “active; positive”. For the same compound, the mutagenic call was “active; positive” (Test System: AMES SALMONELLA TYPHIMURIUM, Strain/Indicator: TA1538, Metabolic Activation: HAMSTER, LIVER, S-9, AROCLOR 1254, Method: STANDARD PLATE); “active; positive” (Test System: AMES SALMONELLA TYPHIMURIUM, Strain/Indicator: TA1538, Metabolic Activation: NONE, Method: STANDARD PLATE); “active; positive” (Test System: AMES SALMONELLA TYPHIMURIUM, Strain/Indicator: TA1538, Metabolic Activation: RAT, LIVER, S-9, AROCLOR 1254, Method: STANDARD PLATE); “inactive; negative” under setting [10]; “inactive; negative” under setting [11].
Turning to `Cc1ccc2cc3ccccc3cc2c1`, the mutagenic call by setting is: (Test System: AMES SALMONELLA TYPHIMURIUM, Strain/Indicator: TA97, Metabolic Activation: NONE, Method: STANDARD PLATE) “inactive; negative”; (Test System: AMES SALMONELLA TYPHIMURIUM, Strain/Indicator: TA97, Metabolic Activation: RAT, LIVER, S-9, PCB, Method: STANDARD PLATE) “active; positive”; under setting [1], “inactive; negative”; under setting [2], “inactive; negative”; (Test System: AMES SALMONELLA TYPHIMURIUM, Strain/Indicator: TA98, Metabolic Activation: RAT, LIVER, S-9, PCB, Method: STANDARD PLATE) “inactive; negative”; under setting [3], “inactive; negative”. In addition, the mutagenic call is “inactive; negative” under setting [4] and “inactive; negative” (Test System: AMES SALMONELLA TYPHIMURIUM, Strain/Indicator: TA100, Metabolic Activation: RAT, LIVER, S-9, PCB, Method: STANDARD PLATE).
`COc1ccc(C(c2ccc(OC)cc2)C(Cl)(Cl)Cl)cc1`: the mutagenic call (Test System: CHINESE HAMSTER OVARY, Strain/Indicator: CHO-K1-BH4 (HGPRT)/6-THIOGUANINE, Metabolic Activation: NONE, Method: SUSPENSION/PLATE) was “inactive; negative”; the mutagenic call (Test System: CHINESE HAMSTER OVARY, Strain/Indicator: CHO-K1-BH4 (HGPRT)/6-THIOGUANINE, Metabolic Activation: S-9, Method: SUSPENSION/PLATE) was “inactive; negative”; the mutagenic call (Test System: E. COLI, Strain/Indicator: WP2 UVRA, Metabolic Activation: HAMSTER, LIVER, S-9, AROCLOR 1254, Method: STANDARD PLATE) is “inactive; negative”; the mutagenic call (Test System: E. COLI, Strain/Indicator: WP2 UVRA, Metabolic Activation: HAMSTER, LIVER, S-9, Method: STANDARD PLATE) was “inactive; negative”; the mutagenic call (Test System: E. COLI, Strain/Indicator: WP2 UVRA, Metabolic Activation: MOUSE, LIVER, S-9, AROCLOR 1254, Method: STANDARD PLATE) is “inactive; negative”; the mutagenic call (Test System: E. COLI, Strain/Indicator: WP2 UVRA, Metabolic Activation: MOUSE, LIVER, S-9, Method: STANDARD PLATE) was “inactive; negative”. For the same compound, the mutagenic call runs as follows: (Test System: E. COLI, Strain/Indicator: WP2 UVRA, Metabolic Activation: NONE, Method: STANDARD PLATE) “inactive; negative”; (Test System: E. COLI, Strain/Indicator: WP2 UVRA, Metabolic Activation: RAT, LIVER, S-9, AROCLOR 1254, Method: STANDARD PLATE) “inactive; negative”; (Test System: E. COLI, Strain/Indicator: WP2 UVRA, Metabolic Activation: RAT, LIVER, S-9, Method: STANDARD PLATE) “inactive; negative”; under setting [10], “inactive; negative”; under setting [11], “active; positive”; (Test System: MOUSE LYMPHOMA, Strain/Indicator: L5178Y (TK+/TK-), Metabolic Activation: RAT, LIVER, S-9, Method: SUSPENSION/PLATE) “active; positive”. Further, the mutagenic call (Test System: MOUSE LYMPHOMA, Strain/Indicator: L5178Y (TK+/TK-), Metabolic Activation: S-9, Method: SUSPENSION/PLATE) was “active; positive”.
Consider `O[C@@H]1[C@@H]2O[C@@H]2c2c(ccc3cc4c(ccc5ccccc54)nc23)[C@H]1O`, for which the mutagenic call by setting is: under setting [8], “active; positive”; under setting [9], “active; positive”; (Test System: CHINESE HAMSTER V-79, Strain/Indicator: V-79/8-AZAGUANINE, Metabolic Activation: NONE) “active; positive”.

The values are drawn from PubChem BioAssay AID1259407 (Chemical Carcinogenesis Research Information System (CCRIS), 2018).
